This note sets out measurements from ChEMBL document CHEMBL3108691, “Structural investigation of cycloheptathiophene-3-carboxamide derivatives targeting influenza virus polymerase assembly” (J Med Chem, 2013).

This assay concerns Influenza A virus. The class given is functional, organism-based, Influenza A virus (A/Parma/24/2009(H1N1)). To be noted: MDCK, 48 h.

Consider `NC(=O)c1ncn([C@@H]2O[C@H](CO)[C@@H](O)[C@H]2O)n1` [RIBAVIRIN], for which the midpoint of the response, the EC50, lay at 17 µM.
